The record followed here is US10266535B2, “Inhibitor of FLT3 kinase and use thereof” (HEFEI INSTITUTES OF PHYSICAL SCIENCE, CHINESE ACADEMY OF …, priority 2015, dated 2019).

The subject of assay [1] is MV4-11 (expressing FLT3/ITD mutant gene). Nature of the assay: Cell proliferation, Cell Titer-Glo, MV4-11. The format is cell-based. As to conditions: Homo sapiens, MV4-11; incubated for 72 hours; read-out: MV4-11 IC50. Here is the method:
(§1) The above cell lines were constructed by our laboratory.
(§2) The number of viable cells was determined by quantification of ATP in living cells using the Cell Titer-Glo® (Promega, USA) chemiluminescence cell viability assay kit.

The subject of assay [2] is TPR-MET-BaF3 (stably expressing MET kinase). Nature of the assay: Cell proliferation, Cell Titer-Glo, TPR-MET-BaF3. In kind it is cell-based. As to conditions: Mus musculus; incubated for 72 hours. As for the experimental part:
as §1, §2
For orientation: ATP-based viability assays read luminescence as a measure of living cells.

The test system of assay [3] is OCI-AML-3 (expressing FLT3 A680V mutant gene). In words: Cell proliferation, Cell Titer-Glo, OCI-AML3. The format is cell-based. As to conditions: Homo sapiens, incubated for 72 hours. As for the experimental part:
as §1, §2

Assay [4] has as its system U937 (expressing wild-type FLT3 gene). Nature of the assay: Cell proliferation, Cell Titer-Glo, U937. The format is cell-based, human. As to conditions: incubated for 72 hours, read-out: U937 IC50. As for the experimental part:
as §1, §2

Assay [5] relates to MOLM-13 (expressing FLT3/ITD mutant gene and wild-type FLT3 gene). Nature of the assay: Cell proliferation, Cell Titer-Glo, MOLM-13. As to conditions: Homo sapiens, MOLM-13; incubated for 72 hours; read-out: MOLM-13 IC50. The format is cell-based. As for the experimental part: as §1, §2
Assay [6] concerns TEL-BaF3-BLK (stably expressing BLK kinase). In words: Cell proliferation, Cell Titer-Glo, TEL-BaF3-BLK. In kind it is cell-based. As to conditions: Mus musculus; incubated for 72 hours. As for the experimental part: as §1, §2
Another assay concerns the target BTK protein kinase (Homo sapiens (Human), UniProt Q06187). In words: In vitro inhibition activity (enzymatic activity), ADP-Glo, BTK. As to conditions: ATP 10 μM. In kind it is biochemical. On the technique in general: ADP-Glo turns the ADP formed in a reaction into a luminescent signal.
A further assay deals with pro-B cell BaF3. Nature of the assay: Cell proliferation, Cell Titer-Glo, BaF3. As to conditions: Mus musculus, incubated for 72 hours. The format is cell-based. Here is the method: as §1, §2
Assay [7] relates to TEL-BaF3-BMX (stably expressing BMX kinase). Nature of the assay: Cell proliferation, Cell Titer-Glo, TEL-BaF3-BMX. The format is cell-based. As to conditions: Mus musculus; incubated for 72 hours. As for the experimental part: as §1, §2
Assay [8] concerns TEL-BaF3-FLT3/ITD (stably expressing FLT3/ITD mutant activated kinase). In words: Cell proliferation, Cell Titer-Glo, TEL-BaF3-FLT3/ITD. In kind it is cell-based, mouse. As to conditions: incubated for 72 hours, read-out: TEL-BaF3-FLT3/ITD IC50. Here is the method:
as §1, §2

In assay [9] the test system is MOLM-14 (expressing FLT3/ITD mutant gene and wild-type FLT3 gene). Nature of the assay: Cell proliferation, Cell Titer-Glo, MOLM-14. The format is cell-based. As to conditions: Homo sapiens, MOLM-14; incubated for 72 hours; read-out: MOLM-14 IC50. Here is the method:
as §1, §2

For assay [10], the system named is TEL-JAK1-BaF3 (stably expressing JAK1 kinase). In words: Cell proliferation, Cell Titer-Glo, TEL-JAK1-BaF3. The format is cell-based. As to conditions: Mus musculus; incubated for 72 hours. As for the experimental part: as §1, §2
The subject of assay [11] is TEL-BaF3-FLT3-D835Y (stably expressing FLT3 D835Y mutant activated kinase). In words: Cell proliferation, Cell Titer-Glo, TEL-BaF3-FLT3-D835Y. In kind it is cell-based. As to conditions: Mus musculus; incubated for 72 hours; read-out: TEL-BaF3-FLT3-D835Y IC50. Here is the method: as §1, §2

pIC50: −log10 of the molar value. Where a name gives a salt, the structure may show the parent alone. Read-outs that look alike come from different tables or passages of the source.

Sequence of BTK protein kinase (Q06187 whole entry): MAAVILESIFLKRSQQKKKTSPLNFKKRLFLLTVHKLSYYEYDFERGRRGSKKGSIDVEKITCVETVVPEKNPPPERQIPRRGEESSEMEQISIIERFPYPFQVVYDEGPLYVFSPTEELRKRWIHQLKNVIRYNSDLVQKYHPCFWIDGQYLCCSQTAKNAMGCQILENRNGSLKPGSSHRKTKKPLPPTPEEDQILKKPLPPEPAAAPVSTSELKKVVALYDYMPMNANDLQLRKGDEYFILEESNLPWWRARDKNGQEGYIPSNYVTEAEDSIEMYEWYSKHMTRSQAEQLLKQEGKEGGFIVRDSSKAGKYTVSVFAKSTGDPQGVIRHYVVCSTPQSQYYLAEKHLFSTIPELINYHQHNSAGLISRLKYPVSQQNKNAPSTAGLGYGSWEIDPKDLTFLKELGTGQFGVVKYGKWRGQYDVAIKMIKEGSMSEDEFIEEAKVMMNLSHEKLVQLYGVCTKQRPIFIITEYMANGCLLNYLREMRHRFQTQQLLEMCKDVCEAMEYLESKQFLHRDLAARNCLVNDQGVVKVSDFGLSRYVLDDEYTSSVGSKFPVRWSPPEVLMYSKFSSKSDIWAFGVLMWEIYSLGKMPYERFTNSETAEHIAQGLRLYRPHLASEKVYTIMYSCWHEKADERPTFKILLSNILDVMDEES

Consider `CC(O)[C@@H](N)C(=O)N1CCC[C@@H](n2nc(-c3ccc(Oc4ccccc4)cc3)c3c(N)ncnc32)C1` (stereo partly drawn) [Compound 44, (R)-2-amino-1-((R)-3-(4-amino-(4-phenoxyphenyl)-1H-pyrazolo[3,4-d]pyrimidin-1-yl)piperidin-1-yl)-3-hydroxybutanone], for which the pIC50 was 7.19 in [1]; 5.56 in [2]; 5.42 in assay [3]; under 5.00 in [4] (Homo sapiens, U-937, 72 h); 7.14 in assay [5]; 6.00 in assay [6]. Besides, the pIC50 is 7.28 on BTK protein kinase; 5.41 in the assay with pro-B cell BaF3; 6.92 in assay [7]; 7.66 in assay [8] (Mus musculus, 72 h); 7.23 in assay [9].

Take `CN1CCN(Cc2ccc(C(=O)N3CCC[C@@H](n4nc(-c5ccc(Oc6ccccc6)cc5)c5c(N)ncnc54)C3)cc2)CC1` [Compound 35, (R)-(3-(4-amino-(4-phenoxyphenyl)-1H-pyrazolo[3,4-d]pyrimidin-1-yl)piperidin-1-yl)(4-((4-methylpiperazin-1-yl)methyl)phenyl)methanone]: the pIC50 was 6.55 in assay [1]; 6.21 in assay [3]; 5.97 in assay [4] (Homo sapiens, U-937, 72 h); 7.15 in assay [8] (Mus musculus, 72 h).

With `CC(Cl)C(=O)N1CCC[C@@H](n2nc(-c3ccc(Oc4ccccc4)cc3)c3c(N)ncnc32)C1` (stereo partly drawn) [Compound 38], the pIC50 was 6.01 in assay [1]; 5.19 in [3]; 5.10 in assay [4] (Homo sapiens, U-937, 72 h); 6.92 in assay [8] (Mus musculus, 72 h).

For the compound `CC(C)CC(=O)N1CCC[C@@H](n2nc(-c3ccc(Oc4ccccc4)cc3)c3c(N)ncnc32)C1` [Compound 53], the pIC50 in [1] was 5.47; in assay [3], under 5.00; in [4] (Homo sapiens, U-937, 72 h), under 5.00; in assay [8] (Mus musculus, 72 h), 6.11.

`C[C@@H](N)C(=O)N1CCC[C@@H](n2nc(-c3ccc(Oc4ccccc4)cc3)c3c(N)ncnc32)C1` [Compound 47]: the pIC50 in assay [1] is 7.27; in assay [2], 5.61; in assay [3], 5.57; in [4] it was under 5.00; in [5] it was 7.47; in assay [6] it was 6.17. Further, the pIC50 against BTK protein kinase is 7.57; with pro-B cell BaF3, 5.42; in assay [7], 7.25; in assay [8] it was 7.66; in assay [9] it was 7.32.

Consider `Nc1ncnc2c1c(-c1ccc(Oc3ccccc3)cc1)nn2[C@@H]1CCCN(C(=O)CCCl)C1` [Compound 36], for which the pIC50 in assay [1] is 6.17; in assay [3], under 5.00; in [4] (Homo sapiens, U-937, 72 h), 5.05; in assay [8] (Mus musculus, 72 h), 6.82.

Regarding `CCC(C)(C)C(=O)N1CCC[C@@H](n2nc(-c3ccc(Oc4ccccc4)cc3)c3c(N)ncnc32)C1` [Compound 50], the pIC50 in [1] was 5.62; in assay [3], under 5.00; in assay [4] (Homo sapiens, U-937, 72 h) it was under 5.00; in [8] (Mus musculus, 72 h), 6.59.

Regarding `CN1CCN(CC(=O)N2CCC[C@@H](n3nc(-c4ccc(Oc5ccccc5)cc4)c4c(N)ncnc43)C2)CC1` [Compound 39], the pIC50 in assay [1] is 6.64; in assay [3], 5.31; in assay [4] (Homo sapiens, U-937, 72 h) it was 5.23; in [8] (Mus musculus, 72 h), 7.03.

Regarding `Nc1ncnc2c1c(-c1ccc(Oc3ccccc3)cc1)nn2[C@@H]1CCCN(C(=O)[C@@H](N)Cc2c[nH]cn2)C1` [Compound 6, (S)-2-amino-1-((R)-3-(4-amino-(4-phenoxyphenyl)-1H-pyrazolo[3,4-d]pyrimidin-1-yl)piperidin-1-yl)-3-(1H-imidazol-4-yl)propan-1-one], the pIC50 was under 5.00 in assay [4] (Homo sapiens, U-937, 72 h); 6.89 against BTK protein kinase; 5.96 in assay [8] (Mus musculus, 72 h).

Regarding `Nc1ncnc2c1c(-c1ccc(Oc3ccccc3)cc1)nn2[C@@H]1CCCN(C(=O)[C@H](N)CO)C1` [Compound 48], the pIC50 in assay [1] is 7.21; in assay [2], 5.45; in assay [3] it was 5.36; in assay [4] (Homo sapiens, U-937, 72 h), under 5.00; in [5], 7.28; in assay [6], 5.96. Also, the pIC50 on BTK protein kinase was 7.55; in the assay with pro-B cell BaF3 it was 5.19; in assay [8] (Mus musculus, 72 h), 7.34; in [9], 7.10.

For the compound `CC(Br)C(=O)N1CCC[C@@H](n2nc(-c3ccc(Oc4ccccc4)cc3)c3c(N)ncnc32)C1` (stereo partly drawn) [Compound 37], the pIC50 is 6.64 in assay [1]; 5.96 in [3]; under 5.00 in [4] (Homo sapiens, U-937, 72 h); 6.82 in assay [8] (Mus musculus, 72 h).

As for `NCCC(=O)N1CCC[C@@H](n2nc(-c3ccc(Oc4ccccc4)cc3)c3c(N)ncnc32)C1` [Compound 46], the pIC50 is 6.12 in assay [1]; 5.06 in assay [3]; 5.25 in [4] (Homo sapiens, U-937, 72 h); 6.41 in assay [8] (Mus musculus, 72 h).

For the compound `CCS(=O)(=O)N1CCC[C@@H](n2nc(-c3ccc(Oc4ccccc4)cc3)c3c(N)ncnc32)C1` [Compound 41, (R)-3-(4-phenoxyphenyl)-1-(1-(ethylsulfonyl)piperidin-3-yl)-1H-pyrazolo[3,4-d]pyrimidin-4-amine], the pIC50 in [1] is 6.24; in [3], 5.31; in assay [4] (Homo sapiens, U-937, 72 h) it was 5.23; in assay [8] (Mus musculus, 72 h) it was 6.85.

Take `COC(=O)N1CCC(C(=O)N2CCC[C@@H](n3nc(-c4ccc(Oc5ccccc5)cc4)c4c(N)ncnc43)C2)CC1` [Compound 60, (R)-methyl 4-(3-(4-amino-(4-phenoxyphenyl)-1H-pyrazolo[3,4-d]pyrimidin-1-yl)piperidine-1-carbonyl)piperidin-1-carboxylate]: the pIC50 in [1] is 6.28; in assay [5], 5.87; with pro-B cell BaF3 it was 5.36; in assay [8] (Mus musculus, 72 h), 6.52; in assay [10] it was 6.11.

`Nc1ncnc2c1c(-c1ccc(Oc3ccccc3)cc1)nn2[C@@H]1CCCN(C(=O)CC(F)(F)F)C1` [Compound 51]: the pIC50 in assay [1] was 6.21; in assay [3], under 5.00; in assay [4] (Homo sapiens, U-937, 72 h), under 5.00; in assay [8] (Mus musculus, 72 h), 6.82.

As to `CN[C@H](CC(C)C)C(=O)NC1CCC(n2nc(-c3ccc(Oc4ccccc4)cc3)c3c(N)ncnc32)CC1` (stereo partly drawn) [Compound 92, (R)-N-(4-(4-amino-(4-phenoxyphenyl)-1H-pyrazolo[3,4-d]pyrimidin-1-yl)cyclohexyl)-4-methyl-2-(methylamino)pentanamide hydrochloride], the pIC50 in [1] was over 9.52; in the assay with pro-B cell BaF3 it was 5.72; in assay [11] it was over 9.52; in [8] (Mus musculus, 72 h) it was over 9.52; in assay [9], over 9.52.

In the case of `Nc1ncnc2c1c(-c1ccc(Oc3ccccc3)cc1)nn2[C@@H]1CCCN(C(=O)[C@@H](N)Cc2c[nH]c3ccccc23)C1` [Compound 9, (S)-2-amino-1-((R)-3-(4-amino-(4-phenoxyphenyl)-1H-pyrazolo[3,4-d]pyrimidin-1-yl)piperidin-1-yl)-3-(1H-indol-3-yl)propan-1-one], the pIC50 in assay [4] (Homo sapiens, U-937, 72 h) was under 5.00; against BTK protein kinase, 7.31.

On to `Nc1ncnc2c1c(-c1ccc(Oc3ccccc3)cc1)nn2[C@@H]1CCCN(C(=O)CC2CC2)C1` [Compound 52], for which the pIC50 in assay [1] is 6.39; in assay [3], 5.10; in [4] (Homo sapiens, U-937, 72 h), under 5.00; in [8] (Mus musculus, 72 h), 7.09.

`CCCC(=O)N1CCC[C@@H](n2nc(-c3ccc(Oc4ccccc4)cc3)c3c(N)ncnc32)C1` [Compound 54]: the pIC50 in assay [1] is 5.92; in [3], under 5.00; in assay [4] (Homo sapiens, U-937, 72 h), under 5.00; in [8] (Mus musculus, 72 h) it was 6.35.

As to `CC(C)(C)C(=O)N1CCC[C@@H](n2nc(-c3ccc(Oc4ccccc4)cc3)c3c(N)ncnc32)C1` [Compound 55], the pIC50 in [1] was under 5.00; in assay [3], under 5.00; in [4] (Homo sapiens, U-937, 72 h) it was under 5.00; in [8] (Mus musculus, 72 h), 5.74.

As for `CC(C)(C)CC(=O)N1CCC[C@@H](n2nc(-c3ccc(Oc4ccccc4)cc3)c3c(N)ncnc32)C1` [Compound 49], the pIC50 in assay [1] is 5.62; in assay [3] it was under 5.00; in [4] (Homo sapiens, U-937, 72 h), under 5.00; in [8] (Mus musculus, 72 h), 6.34.

`Nc1ncnc2c1c(-c1ccc(Oc3ccccc3)cc1)nn2[C@@H]1CCCN(C(=O)C(Cl)(Cl)Cl)C1` [Compound 42]: the pIC50 in assay [1] was 5.72; in [3] it was under 5.00; in assay [4] (Homo sapiens, U-937, 72 h), under 5.00; in [8] (Mus musculus, 72 h) it was 6.41.

Turning to `CCCS(=O)(=O)N1CCC[C@@H](n2nc(-c3ccc(Oc4ccccc4)cc3)c3c(N)ncnc32)C1` [Compound 40, (R)-3-(4-phenoxyphenyl)-1-(1-(propylsulfonyl)piperidin-3-yl)-1H-pyrazolo[3,4-d]pyrimidin-4-amine], the pIC50 in [1] is 6.12; in [3], 5.18; in assay [4] (Homo sapiens, U-937, 72 h), 5.35; in assay [8] (Mus musculus, 72 h), 6.80.
